Results: patent US12497365B2, “4-pyridinyl formamide compound or derivative thereof, preparation method therefor, herbicidal composition and use thereof” (Qingdao Kingagroot Chemical Compound Co., Ltd., priority 2019, dated 2025)

Tests used:
Assay in all cases: Weeding effect in post-emergence stage
Type in all cases: in vivo
Conditions in all cases: active ingredient 2000 g/ha, 3 weeks after application, fresh weight control rate
Abutilon theophrasti = system: Abutilon theophrasti
Procedure, shortened: (§1)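 Post-emergence spray, 2-3 leaf stage; acetone/Tween 80 formulation + methyl oleate EC synergist (1.5 liter/ha); 125-2000 g/ha via spray tower. Greenhouse, 3 wk. Read-out: fresh weight growth control rate, graded by activity level.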

[1] = system: Amaranthus retroflexus L.
Procedure, shortened: as §1

Chenopodium album = system: Chenopodium album
Procedure, shortened: as §1

Descurainia sophia = system: Descurainia sophia
Procedure, shortened: as §1

## Cn1nnnc1NC(=O)c1ccnc(-c2ccc(C=O)s2)c1Cl [Compound 1-190]
Abutilon theophrasti
  Weeding effect, activity level (growth control rate), Abutilon theophrasti: 5 (Level 5: growth control rate is above 85%)
[1]
  Weeding effect, activity level (growth control rate), Amaranthus retroflexus L.: 5 (Level 5: growth control rate is above 85%)
Chenopodium album
  Weeding effect, activity level (growth control rate), Chenopodium album: 5 (Level 5: growth control rate is above 85%)
Descurainia sophia
  Weeding effect, activity level (growth control rate), Descurainia sophia: 5 (Level 5: growth control rate is above 85%)

## CC(=O)c1ccc(-c2nccc(C(=O)Nc3nnnn3C)c2Cl)s1 [Compound 1-191]
Abutilon theophrasti
  Weeding effect, activity level (growth control rate), Abutilon theophrasti: 5 (Level 5: growth control rate is above 85%)
[1]
  Weeding effect, activity level (growth control rate), Amaranthus retroflexus L.: 5 (Level 5: growth control rate is above 85%)
Chenopodium album
  Weeding effect, activity level (growth control rate), Chenopodium album: 5 (Level 5: growth control rate is above 85%)
Descurainia sophia
  Weeding effect, activity level (growth control rate), Descurainia sophia: 5 (Level 5: growth control rate is above 85%)

## Cn1nnnc1NC(=O)c1ccnc(-c2ccc(C#N)s2)c1Cl [Compound 1-192]
Abutilon theophrasti
  Weeding effect, activity level (growth control rate), Abutilon theophrasti: 5 (Level 5: growth control rate is above 85%)
[1]
  Weeding effect, activity level (growth control rate), Amaranthus retroflexus L.: 5 (Level 5: growth control rate is above 85%)
Chenopodium album
  Weeding effect, activity level (growth control rate), Chenopodium album: 5 (Level 5: growth control rate is above 85%)
Descurainia sophia
  Weeding effect, activity level (growth control rate), Descurainia sophia: 5 (Level 5: growth control rate is above 85%)

## Cn1nnnc1NC(=O)c1ccnc(-c2cnoc2)c1Cl [Compound 1-193]
Abutilon theophrasti
  Weeding effect, activity level (growth control rate), Abutilon theophrasti: 5 (Level 5: growth control rate is above 85%)
[1]
  Weeding effect, activity level (growth control rate), Amaranthus retroflexus L.: 5 (Level 5: growth control rate is above 85%)
Chenopodium album
  Weeding effect, activity level (growth control rate), Chenopodium album: 5 (Level 5: growth control rate is above 85%)
Descurainia sophia
  Weeding effect, activity level (growth control rate), Descurainia sophia: 5 (Level 5: growth control rate is above 85%)

## Cc1c(C(=O)Nc2nnnn2C)ccnc1-c1ccc(F)cc1 [Compound 1-194]
Abutilon theophrasti
  Weeding effect, activity level (growth control rate), Abutilon theophrasti: 5 (Level 5: growth control rate is above 85%)
[1]
  Weeding effect, activity level (growth control rate), Amaranthus retroflexus L.: 5 (Level 5: growth control rate is above 85%)
Chenopodium album
  Weeding effect, activity level (growth control rate), Chenopodium album: 5 (Level 5: growth control rate is above 85%)
Descurainia sophia
  Weeding effect, activity level (growth control rate), Descurainia sophia: 5 (Level 5: growth control rate is above 85%)

## Cn1nnnc1NC(=O)c1ccnc(-c2ccc(F)cc2)c1F [Compound 1-195]
Abutilon theophrasti
  Weeding effect, activity level (growth control rate), Abutilon theophrasti: 5 (Level 5: growth control rate is above 85%)
[1]
  Weeding effect, activity level (growth control rate), Amaranthus retroflexus L.: 5 (Level 5: growth control rate is above 85%)
Chenopodium album
  Weeding effect, activity level (growth control rate), Chenopodium album: 5 (Level 5: growth control rate is above 85%)
Descurainia sophia
  Weeding effect, activity level (growth control rate), Descurainia sophia: 5 (Level 5: growth control rate is above 85%)

## Cn1nnnc1NC(=O)c1ccnc(-c2ccc(F)cc2)c1Br [Compound 1-196]
Abutilon theophrasti
  Weeding effect, activity level (growth control rate), Abutilon theophrasti: 5 (Level 5: growth control rate is above 85%)
[1]
  Weeding effect, activity level (growth control rate), Amaranthus retroflexus L.: 5 (Level 5: growth control rate is above 85%)
Chenopodium album
  Weeding effect, activity level (growth control rate), Chenopodium album: 5 (Level 5: growth control rate is above 85%)
Descurainia sophia
  Weeding effect, activity level (growth control rate), Descurainia sophia: 5 (Level 5: growth control rate is above 85%)

## CC(C)c1c(C(=O)Nc2nnnn2C)ccnc1-c1ccc(F)cc1 [Compound 1-197]
Abutilon theophrasti
  Weeding effect, activity level (growth control rate), Abutilon theophrasti: 5 (Level 5: growth control rate is above 85%)
[1]
  Weeding effect, activity level (growth control rate), Amaranthus retroflexus L.: 5 (Level 5: growth control rate is above 85%)
Chenopodium album
  Weeding effect, activity level (growth control rate), Chenopodium album: 5 (Level 5: growth control rate is above 85%)
Descurainia sophia
  Weeding effect, activity level (growth control rate), Descurainia sophia: 5 (Level 5: growth control rate is above 85%)

## Cn1nnnc1NC(=O)c1ccnc(-c2ccc(F)cc2)c1C(F)(F)F [Compound 1-198]
Abutilon theophrasti
  Weeding effect, activity level (growth control rate), Abutilon theophrasti: 5 (Level 5: growth control rate is above 85%)
[1]
  Weeding effect, activity level (growth control rate), Amaranthus retroflexus L.: 5 (Level 5: growth control rate is above 85%)
Chenopodium album
  Weeding effect, activity level (growth control rate), Chenopodium album: 5 (Level 5: growth control rate is above 85%)
Descurainia sophia
  Weeding effect, activity level (growth control rate), Descurainia sophia: 5 (Level 5: growth control rate is above 85%)

## Cn1nnnc1NC(=O)c1ccnc(-c2ccc(F)cc2)c1-c1ccccc1 [Compound 1-199]
Abutilon theophrasti
  Weeding effect, activity level (growth control rate), Abutilon theophrasti: 5 (Level 5: growth control rate is above 85%)
[1]
  Weeding effect, activity level (growth control rate), Amaranthus retroflexus L.: 5 (Level 5: growth control rate is above 85%)
Chenopodium album
  Weeding effect, activity level (growth control rate), Chenopodium album: 5 (Level 5: growth control rate is above 85%)
Descurainia sophia
  Weeding effect, activity level (growth control rate), Descurainia sophia: 5 (Level 5: growth control rate is above 85%)

## COc1c(C(=O)Nc2nnnn2C)ccnc1-c1ccc(F)cc1 [Compound 1-200]
Abutilon theophrasti
  Weeding effect, activity level (growth control rate), Abutilon theophrasti: 5 (Level 5: growth control rate is above 85%)
[1]
  Weeding effect, activity level (growth control rate), Amaranthus retroflexus L.: 5 (Level 5: growth control rate is above 85%)
Chenopodium album
  Weeding effect, activity level (growth control rate), Chenopodium album: 5 (Level 5: growth control rate is above 85%)
Descurainia sophia
  Weeding effect, activity level (growth control rate), Descurainia sophia: 5 (Level 5: growth control rate is above 85%)

## CCOc1c(C(=O)Nc2nnnn2C)ccnc1-c1ccc(F)cc1 [Compound 1-201]
Abutilon theophrasti
  Weeding effect, activity level (growth control rate), Abutilon theophrasti: 5 (Level 5: growth control rate is above 85%)
[1]
  Weeding effect, activity level (growth control rate), Amaranthus retroflexus L.: 5 (Level 5: growth control rate is above 85%)
Chenopodium album
  Weeding effect, activity level (growth control rate), Chenopodium album: 5 (Level 5: growth control rate is above 85%)
Descurainia sophia
  Weeding effect, activity level (growth control rate), Descurainia sophia: 5 (Level 5: growth control rate is above 85%)

## Cn1nnnc1NC(=O)c1ccnc(-c2ccc(F)cc2)c1OCC(F)(F)F [Compound 1-202]
Abutilon theophrasti
  Weeding effect, activity level (growth control rate), Abutilon theophrasti: 5 (Level 5: growth control rate is above 85%)
[1]
  Weeding effect, activity level (growth control rate), Amaranthus retroflexus L.: 5 (Level 5: growth control rate is above 85%)
Chenopodium album
  Weeding effect, activity level (growth control rate), Chenopodium album: 5 (Level 5: growth control rate is above 85%)
Descurainia sophia
  Weeding effect, activity level (growth control rate), Descurainia sophia: 5 (Level 5: growth control rate is above 85%)

## CSc1c(C(=O)Nc2nnnn2C)ccnc1-c1ccc(F)cc1 [Compound 1-203]
Abutilon theophrasti
  Weeding effect, activity level (growth control rate), Abutilon theophrasti: 5 (Level 5: growth control rate is above 85%)
[1]
  Weeding effect, activity level (growth control rate), Amaranthus retroflexus L.: 5 (Level 5: growth control rate is above 85%)
Chenopodium album
  Weeding effect, activity level (growth control rate), Chenopodium album: 5 (Level 5: growth control rate is above 85%)
Descurainia sophia
  Weeding effect, activity level (growth control rate), Descurainia sophia: 5 (Level 5: growth control rate is above 85%)

## CCSc1c(C(=O)Nc2nnnn2C)ccnc1-c1ccc(F)cc1 [Compound 1-204]
Abutilon theophrasti
  Weeding effect, activity level (growth control rate), Abutilon theophrasti: 5 (Level 5: growth control rate is above 85%)
[1]
  Weeding effect, activity level (growth control rate), Amaranthus retroflexus L.: 5 (Level 5: growth control rate is above 85%)
Chenopodium album
  Weeding effect, activity level (growth control rate), Chenopodium album: 5 (Level 5: growth control rate is above 85%)
Descurainia sophia
  Weeding effect, activity level (growth control rate), Descurainia sophia: 5 (Level 5: growth control rate is above 85%)

## Cn1nnnc1NC(=O)c1ccnc(-c2ccc(F)cc2)c1[S+](C)[O-] (stereo not shown) [Compound 1-205]
Abutilon theophrasti
  Weeding effect, activity level (growth control rate), Abutilon theophrasti: 5 (Level 5: growth control rate is above 85%)
[1]
  Weeding effect, activity level (growth control rate), Amaranthus retroflexus L.: 5 (Level 5: growth control rate is above 85%)
Chenopodium album
  Weeding effect, activity level (growth control rate), Chenopodium album: 5 (Level 5: growth control rate is above 85%)
Descurainia sophia
  Weeding effect, activity level (growth control rate), Descurainia sophia: 5 (Level 5: growth control rate is above 85%)

## CC[S+]([O-])c1c(C(=O)Nc2nnnn2C)ccnc1-c1ccc(F)cc1 (stereo not shown) [Compound 1-206]
Abutilon theophrasti
  Weeding effect, activity level (growth control rate), Abutilon theophrasti: 5 (Level 5: growth control rate is above 85%)
[1]
  Weeding effect, activity level (growth control rate), Amaranthus retroflexus L.: 5 (Level 5: growth control rate is above 85%)
Chenopodium album
  Weeding effect, activity level (growth control rate), Chenopodium album: 5 (Level 5: growth control rate is above 85%)
Descurainia sophia
  Weeding effect, activity level (growth control rate), Descurainia sophia: 5 (Level 5: growth control rate is above 85%)

## Cn1nnnc1NC(=O)c1ccnc(-c2ccc(F)cc2)c1S(C)(=O)=O [Compound 1-207]
Abutilon theophrasti
  Weeding effect, activity level (growth control rate), Abutilon theophrasti: 5 (Level 5: growth control rate is above 85%)
[1]
  Weeding effect, activity level (growth control rate), Amaranthus retroflexus L.: 5 (Level 5: growth control rate is above 85%)
Chenopodium album
  Weeding effect, activity level (growth control rate), Chenopodium album: 5 (Level 5: growth control rate is above 85%)
Descurainia sophia
  Weeding effect, activity level (growth control rate), Descurainia sophia: 5 (Level 5: growth control rate is above 85%)

## CN(C)c1c(C(=O)Nc2nnnn2C)ccnc1-c1ccc(F)cc1 [Compound 1-208]
Abutilon theophrasti
  Weeding effect, activity level (growth control rate), Abutilon theophrasti: 5 (Level 5: growth control rate is above 85%)
[1]
  Weeding effect, activity level (growth control rate), Amaranthus retroflexus L.: 5 (Level 5: growth control rate is above 85%)
Chenopodium album
  Weeding effect, activity level (growth control rate), Chenopodium album: 5 (Level 5: growth control rate is above 85%)
Descurainia sophia
  Weeding effect, activity level (growth control rate), Descurainia sophia: 5 (Level 5: growth control rate is above 85%)

## CC(C)=NOc1c(C(=O)Nc2nnnn2C)ccnc1-c1ccc(F)cc1 [Compound 1-209]
Abutilon theophrasti
  Weeding effect, activity level (growth control rate), Abutilon theophrasti: 5 (Level 5: growth control rate is above 85%)
[1]
  Weeding effect, activity level (growth control rate), Amaranthus retroflexus L.: 5 (Level 5: growth control rate is above 85%)
Chenopodium album
  Weeding effect, activity level (growth control rate), Chenopodium album: 5 (Level 5: growth control rate is above 85%)
Descurainia sophia
  Weeding effect, activity level (growth control rate), Descurainia sophia: 5 (Level 5: growth control rate is above 85%)

## CCc1c(C(=O)Nc2nnnn2C)ccnc1-c1ccc(F)cc1 [Compound 1-210]
Abutilon theophrasti
  Weeding effect, activity level (growth control rate), Abutilon theophrasti: 5 (Level 5: growth control rate is above 85%)
[1]
  Weeding effect, activity level (growth control rate), Amaranthus retroflexus L.: 5 (Level 5: growth control rate is above 85%)
Chenopodium album
  Weeding effect, activity level (growth control rate), Chenopodium album: 5 (Level 5: growth control rate is above 85%)
Descurainia sophia
  Weeding effect, activity level (growth control rate), Descurainia sophia: 5 (Level 5: growth control rate is above 85%)

## Cn1nnnc1NC(=O)c1ccnc(-c2ccc(F)cc2)c1SCCl [Compound 1-211]
Abutilon theophrasti
  Weeding effect, activity level (growth control rate), Abutilon theophrasti: 5 (Level 5: growth control rate is above 85%)
[1]
  Weeding effect, activity level (growth control rate), Amaranthus retroflexus L.: 5 (Level 5: growth control rate is above 85%)
Chenopodium album
  Weeding effect, activity level (growth control rate), Chenopodium album: 5 (Level 5: growth control rate is above 85%)
Descurainia sophia
  Weeding effect, activity level (growth control rate), Descurainia sophia: 5 (Level 5: growth control rate is above 85%)
